Where two headings read alike, the source gives them in different places.
Experiments:
MV4;11 = assay: Cell growth assay, MV4;11 AML cell line; format: cell-based, human
Protocol: (§1) For all other cell lines, compounds were serially diluted in medium and dispensed in triplicate in 96-well plates (0.1% DMSO final for assay) followed by the addition of exponentially growing cells at densities ranging from 5,000 to 30,000 cells/well. Cells were also seeded into 2 additional control wells containing vehicle (0.1% DMSO). […] To determine the estimated cell number in each well, cells that were counted in the control well were diluted 3-fold for an 8-point dilution series, and transferred to 384-well plates in duplicate, 20 μL per well. Cells in all other wells were diluted 4-fold and transferred to 384-well plates in duplicate, 20 μL per well. 20 μL of CellTiter-Glo (Promega) was subsequently added to all wells and luminescence was detected using a SPECTRAmax M3. The control well dilution series was fit to a linear regression and used as a standard for calculating the estimated cell number for each well. For days 7 and 10, total estimated cell number represents the split-adjusted theoretical cell number.

MOLM-14 = assay: Cell growth assay, MOLM-14 AML cell line; format: cell-based, human
Protocol: as §1

[1] = Homo sapiens, MV4-11, 240 h, day 10, cells passaged, fresh compound added on days 3 and 7, read-out: MV 4;11 GI50 day 10
[2] = Homo sapiens, MOLM-14, 240 h, day 10, cells passaged, fresh compound added on days 3 and 7, read-out: MOL M14 G150 day 10
[3] = day 10, cells passaged, fresh compound added on days 3 and 7, read-out: MV 4;11 GI50 day 10
[4] = day 10, cells passaged, fresh compound added on days 3 and 7, read-out: MOL M14 G150 day 10
[5] = Homo sapiens, MV4-11, 168 h, day 7, printed as symbol, read-out: MV4;11 GI50 day 7
[6] = Homo sapiens, MOLM-14, 168 h, day 7, printed as symbol, read-out: MOL M14 GI50 day 7

SMILES	GI50 (MV4;11; [1])	GI50 (MOLM-14; [2])	also measured
C[C@]12CC=C3C=C4CC[C@H](N5CCC6(COC6)C5)C[C@]45CCC3(O5)[C@@H]1CCC2c1ccc2ccncc2c1 (stereo partly drawn) [38B, β-2-oxa-6-azaspiro[3.4]octane]	10 nM	10 nM	
COCCN(C)[C@H]1CCC2=CC3=CC[C@]4(C)C(c5ccc6ccncc6c5)CC[C@H]4[C@@]34CC[C@]2(C1)O4 (stereo partly drawn) [27B, β-2-methoxyethylmethylamine]	7 nM	10 nM	
C[C@]12CC=C3C=C4CC[C@@H](O)CC45CC[C@]3(O5)[C@@H]1CC[C@@H]2c1ccc2ccncc2c1 [17A, α-alcohol]			GI50 (MV4;11; [3]): 1 nM; GI50 (MOLM-14; [4]): 6 nM
CN(CC1(C)COC1)[C@H]1CCC2=CC3=CC[C@]4(C)[C@@H](c5ccc6ccncc6c5)CC[C@H]4[C@@]34CCC2(C1)O4 [42B, β-N-methyl-1-(3-methyl-3-oxetanyl)methanamine]	7.5 nM	20 nM	
CN(C1CC1)[C@H]1CCC2=CC3=CC[C@]4(C)C(c5ccc6ccncc6c5)CC[C@H]4C34CC[C@]2(C1)O4 (stereo partly drawn) [40B, β-Cyclopropylmethylamine]	16 nM	25 nM	
C[C@]12CC=C3C=C4CC[C@H](N5CCC(F)(F)C5)C[C@]45CC[C@]3(O5)[C@@H]1CC[C@@H]2c1ccc2ccncc2c1 [37B, β-3,3-difluoropyrrolidine]	65 nM	200 nM	
CN(C)[C@H]1CCC2=CC3=CC[C@]4(C)C(c5ccc6[nH]ncc6c5)=CC[C@H]4C34CC[C@]2(C1)O4 [61B, β-dimethylamine 17,18-unsaturated 5-indazole]			GI50 (MV4;11; [5]): > 1000 nM; GI50 (MOLM-14; [6]): > 1000 nM
C[C@]12CC=C3C=C4CC[C@H](N5CC[C@@H](F)C5)C[C@]45CC[C@]3(O5)[C@@H]1CC[C@@H]2c1ccc2ccncc2c1 [35B, β-(R)-3-fluoropyrrolidine]	80 nM	160 nM	
CN(CCF)[C@H]1CCC2=CC3=CC[C@]4(C)C(c5ccc6ccncc6c5)CC[C@H]4[C@@]34CC[C@]2(C1)O4 (stereo partly drawn) [29B, β-2-fluoroethylmethylamine]	7 nM	14 nM	
CO[C@@H]1CCC2=CC3=CC[C@]4(C)[C@@H](c5ccc6ccncc6c5)CC[C@H]4[C@@]34CCC2(C1)O4 [64A, α-methylether]			GI50 (MV4;11; [3]): 15 nM; GI50 (MOLM-14; [4]): 45 nM
C[C@]12CC=C3C=C4CC[C@H](N)CC45CC[C@]3(O5)[C@@H]1CC[C@@H]2c1ccc2ccncc2c1 [62B, β-primaryamine]	20 nM	70 nM	
C[C@]12CC=C3C=C4CC[C@@H](N5CCC5)CC45CC[C@]3(O5)[C@@H]1CC[C@@H]2c1ccc2ccncc2c1 [18A, α-azetidine]	1 nM	3 nM	
CC(C)(C)N[C@@H]1CCC2=CC3=CC[C@]4(C)C(c5ccc6ccncc6c5)CC[C@H]4C34CC[C@]2(C1)O4 (stereo partly drawn) [43A, α-t-butylamine]	175 nM	200 nM	
CN(C)[C@H]1CCC2=CC3=CC[C@]4(C)C(c5ccc6cnncc6c5)=CC[C@H]4C34CC[C@]2(C1)O4 [55B, β-dimethylamine 17,18-unsaturated phthalazine]			GI50 (MV4;11; [5]): > 1000 nM; GI50 (MOLM-14; [6]): > 1000 nM
C[C@]12CC=C3C=C4CC[C@H](N5CC[C@H](F)C5)C[C@]45CC[C@]3(O5)[C@@H]1CC[C@@H]2c1ccc2ccncc2c1 [36B, β-(S)-3-fluoropyrrolidine]	19 nM	95 nM	
C[C@]12CC=C3C=C4CC[C@H](N5C[C@H](O)C[C@H]5C(=O)O)C[C@]45CCC3(O5)[C@@H]1CCC2c1ccc2ccncc2c1 (some centres unmarked) [65B]	3 nM	16 nM	
CN(CC(F)F)[C@H]1CCC2=CC3=CC[C@]4(C)C(c5ccc6ccncc6c5)CC[C@H]4[C@@]34CC[C@]2(C1)O4 (stereo partly drawn) [30B, β-2,2-difluoroethylmethylamine]	20 nM	55 nM	
CC(C)N(C)[C@H]1CCC2=CC3=CC[C@]4(C)[C@@H](c5ccc6ccncc6c5)CC[C@H]4[C@@]34CC[C@]2(C1)O4 [33B, β-isopropylmethylamine]	22 nM	60 nM	
COCCN(CCOC)[C@H]1CCC2=CC3=CC[C@]4(C)C(c5ccc6ccncc6c5)CC[C@H]4[C@@]34CC[C@]2(C1)O4 (stereo partly drawn) [28B, β-bis-2-methoxyethylamine]	9.5 nM	15 nM	
CCN(C(C)C)[C@H]1CCC2=CC3=CC[C@]4(C)[C@@H](c5ccc6ccncc6c5)CC[C@H]4[C@@]34CC[C@]2(C1)O4 [34B]			GI50 (MV4;11; Homo sapiens, MV4-11, 240 h, read-out: MV 4;11 GI50 day 10 (nM)): 8.5 nM; IC50 (MOLM-14; Homo sapiens, MOLM-14, 240 h, read-out: MOL M14 G150 day 10 (nM)): 15 nM

SMILES	GI50 (MV4;11; [1])	GI50 (MOLM-14; [2])	also measured
C[C@]12CC=C3C=C4CC[C@H](N5[C@H]6CC[C@@H]5CC6)C[C@]45CC[C@]3(O5)[C@@H]1CC[C@@H]2c1ccc2ccncc2c1 [31B, β-7-Azabicyclo[2.2.1]heptane]	75 nM	100 nM	
CN(C)[C@H]1CCC2=CC3=CC[C@]4(C)C(c5ccc6cn[nH]c6c5)=CC[C@H]4C34CC[C@]2(C1)O4 [58B, β-dimethylamine 17,18-unsaturated 6-indazole]			GI50 (MV4;11; [5]): > 1000 nM; GI50 (MOLM-14; [6]): > 1000 nM
CC(C)(C)N[C@H]1CCC2=CC3=CC[C@]4(C)C(c5ccc6ccncc6c5)CC[C@H]4C34CC[C@]2(C1)O4 (stereo partly drawn) [43B, β-t-butylamine]	95 nM	150 nM	
CC1(N[C@H]2CCC3=CC4=CC[C@]5(C)C(c6ccc7ccncc7c6)CC[C@H]5C45CC[C@]3(C2)O5)COC1 (stereo partly drawn) [41B, β-3-methyl-3-oxetanamine]	8 nM	16 nM	
CC(C)N[C@H]1CCC2=CC3=CC[C@]4(C)[C@@H](c5ccc6ccncc6c5)CC[C@H]4[C@@]34CC[C@]2(C1)O4 [32B, β-isopropylamine]	27 nM	55 nM	
CN(C)[C@H]1CCC2=CC3=CC[C@]4(C)[C@@H](C(=O)Nc5cccnc5)CC[C@H]4[C@@]34CCC2(C1)O4 [50B, β-dimethylamine amidepyridine]			GI50 (MV4;11; [5]): > 1000 nM; GI50 (MOLM-14; [6]): > 1000 nM
C[C@]12CC=C3C=C4CC[C@@H](NCCS(N)(=O)=O)C[C@]45CCC3(O5)[C@@H]1CC[C@@H]2c1ccc2ccncc2c1 [71A]	2 nM	20 nM	
C[C@]12CC=C3C=C4CC[C@@H]([N+](C)(C)[O-])CC45CC[C@]3(O5)[C@@H]1CC[C@@H]2c1ccc2ccncc2c1 [14ANO, 14A-N-Oxide]	1.75 nM	14 nM	
CN(C)[C@H]1CCC2=CC3=CC[C@]4(C)[C@@H](NCc5cccnc5)CC[C@H]4C34CC[C@]2(C1)O4 [46B, β-dimethylamine aminomethylpyridine]			GI50 (MV4;11; [5]): > 1000 nM; GI50 (MOLM-14; [6]): > 1000 nM
C[C@]12CC=C3C=C4CC[C@@H](NCC5(O)COC5)CC45CC[C@]3(O5)[C@@H]1CC[C@@H]2c1ccc2ccncc2c1 [72A, α-hydroxyaminomethyloxetane]	8 nM	4 nM	
C[C@]12CC=C3C=C4CC[C@H](N5CCCC5)C[C@]45CC[C@]3(O5)[C@@H]1CC[C@@H]2c1ccc2ccncc2c1 [19B, β-pyrrolidine]	8 nM	10 nM	GI50 (MV4;11; Homo sapiens, MV4-11, day 7, fresh compound added on day 3, read-out: MV4;11 GI50 day 7): 15 nM; GI50 (MOLM-14; Homo sapiens, MOLM-14, day 7, fresh compound added on day 3, read-out: MOL M14 GI50 day 7): 16 nM
CN(C)[C@H]1CCC2=CC3=CC[C@]4(C)C(C(=O)Nc5cccnc5)=CC[C@H]4[C@@]34CCC2(C1)O4 [49B, β-dimethylamine 17,18-unsaturated amidepyridine]			GI50 (MV4;11; [5]): > 1000 nM; GI50 (MOLM-14; [6]): > 1000 nM
CC1(O)CN([C@@H]2CCC3=CC4=CC[C@]5(C)[C@@H](c6ccc7ccncc7c6)CC[C@H]5C45CC[C@]3(C2)O5)C1 [69A, α-hydroxymethylazetidine]	9.5 nM	30 nM	
CN[C@H]1CCC2=CC3=CC[C@]4(C)C(c5ccc6ccncc6c5)CC[C@H]4C34CC[C@]2(C1)O4 (stereo partly drawn) [24B, β-monomethylamine]	20 nM	50 nM	
C[C@]12CC=C3C=C4CC[C@H](NC5CC5)C[C@]45CCC3(O5)[C@@H]1CCC2c1ccc2ccncc2c1 (stereo partly drawn) [39B, β-cyclopropylamine]	17 nM	30 nM	
[2H]C([2H])([2H])N([C@H]1CCC2=CC3=CC[C@]4(C)C(c5ccc6ccncc6c5)CC[C@H]4[C@@]34CC[C@]2(C1)O4)C([2H])([2H])[2H] (stereo partly drawn) [26B, β-deuterodimethylamine]	4 nM	6 nM	
CNC(=O)O[C@@H]1CCC2=CC3=CC[C@]4(C)[C@@H](c5ccc6ccncc6c5)CC[C@H]4[C@@]34CCC2(C1)O4 [68A, α-monomethylcarbamate]			GI50 (MV4;11; [3]): 120 nM; GI50 (MOLM-14; [4]): 150 nM
C[C@]12CC=C3C=C4CC[C@H](NCCS(N)(=O)=O)C[C@]45CCC3(O5)[C@@H]1CC[C@@H]2c1ccc2ccncc2c1 [71B]	18 nM	50 nM	
C[C@]12CC=C3C=C4CC[C@@H](N5CC(O)C5)C[C@]45CCC3(O5)[C@@H]1CC[C@@H]2c1ccc2ccncc2c1 [70A, α-hydroxyazetidine]	7 nM	12 nM	
